Source: ChEMBL document CHEMBL4715696, “In vitro synergistic anticancer activity of the combination of T-type calcium channel blocker and chemotherapeutic agent in A549 cells” (Bioorg Med Chem Lett, 2016)

Experiments:
A549 [1] = assay: Induction of cell cycle arrest in human A549 cells assessed as accumulation at S phase at 5 uM after 48 hrs by flow cytometric analysis (reference value: 10.4 to 12%); type: functional
A549 [2] = assay: Decrease in cell cycle associated protein expression in human A549 cells assessed as fold change in CDK2 expression at 5 uM after 48 hrs by Western blot analysis (reference value: 0.48); type: functional
A549 [3] = assay: Decrease in cell cycle associated protein expression in human A549 cells assessed as reduction in CDK2 expression at 10 uM by Western blot analysis; type: functional, cell-based; conditions: time 6-48 hrs, TDE = time-dependent effect
A549 [4] = assay: Decrease in cell cycle associated protein expression in human A549 cells assessed as fold change in CDK2 expression at 10 uM after 6 hrs by Western blot analysis (reference value: 0.79); type: functional
A549 [5] = assay: Decrease in cell cycle associated protein expression in human A549 cells assessed as reduction in CDK4 expression after 48 hrs by Western blot analysis; type: functional, cell-based; conditions: dose 2.5-10 µM
A549 [6] = assay: Decrease in cell cycle associated protein expression in human A549 cells assessed as fold change in CDK4 expression at 2.5 uM after 48 hrs by Western blot analysis (reference value: 0.62); type: functional
A549 [7] = assay: Decrease in cell cycle associated protein expression in human A549 cells assessed as fold change in CDK4 expression at 10 uM after 48 hrs by Western blot analysis (reference value: 0.62 to 0.87); type: functional
A549 [8] = assay: Decrease in cell cycle associated protein expression in human A549 cells assessed as fold change in CDK4 expression at 10 uM after 12 hrs by Western blot analysis (reference value: 0.87); type: functional
A549 [9] = assay: Decrease in cell cycle associated protein expression in human A549 cells assessed as fold change in CDK4 expression at 10 uM after 36 hrs by Western blot analysis (reference value: 0.87); type: functional
A549 [10] = assay: Decrease in cell cycle associated protein expression in human A549 cells assessed as fold change in CDK6 expression at 5 uM after 48 hrs by Western blot analysis (reference value: 1.05); type: functional
A549 [11] = assay: Decrease in cell cycle associated protein expression in human A549 cells assessed as fold change in CDK6 expression at 10 uM after 36 hrs by Western blot analysis (reference value: 0.7); type: functional
A549 [12] = assay: Decrease in cell cycle associated protein expression in human A549 cells assessed as fold change in cyclin D1 expression at 2.5 uM after 48 hrs by Western blot analysis (reference value: 0.39); type: functional
A549 [13] = assay: Decrease in cell cycle associated protein expression in human A549 cells assessed as fold change in cyclin D2 expression at 10 uM after 6 hrs by Western blot analysis (reference value: 0.77); type: functional
A549 [14] = assay: Decrease in cell cycle associated protein expression in human A549 cells assessed as fold change in cyclin D2 expression at 10 uM after 24 hrs by Western blot analysis (reference value: 0.77); type: functional
A549 [15] = assay: Decrease in cell cycle associated protein expression in human A549 cells assessed as fold change in cyclin D3 expression at 10 uM after 36 hrs by Western blot analysis (reference value: 1.09); type: functional
A549 [16] = assay: Decrease in cell cycle associated protein expression in human A549 cells assessed as reduction in cyclin E expression after 48 hrs by Western blot analysis; type: functional, cell-based; conditions: dose 2.5-10 µM
A549 [17] = assay: Decrease in cell cycle associated protein expression in human A549 cells assessed as fold change in cyclin E expression at 10 uM after 6 hrs by Western blot analysis (reference value: 0.55); type: functional
[18] = Upregulation of p27KIP1 protein expression in human A549 cells assessed as fold change in expression at 10 uM after 36 hrs by Western blot analysis (reference value: 0.83); type: functional
[19] = Metabolic stability in dog liver microsomes assessed as parent compound remaining at 1 uM measured for 30 mins; type: ADME, Canis lupus familiaris, Microsome; conditions: read-out: Stabilty
CYP2C19 = CYP2C19 (Homo sapiens, UniProt P33261); assay: Inhibition of human CYP2C19 assessed as residual activity at 10 uM measured after 15 mins relative to control; type: ADME; conditions: read-out: Activity
CYP3A4 = CYP3A4 (Homo sapiens, UniProt P08684); assay: Inhibition of human CYP3A4 assessed as residual activity at 10 uM measured after 15 mins relative to control; type: ADME; conditions: read-out: Activity
[20] = Metabolic stability in human plasma assessed as parent compound remaining at 10 uM measured after 30 mins; type: ADME, cell-free; conditions: read-out: Stabilty
[21] = Metabolic stability in human plasma assessed as parent compound remaining at 10 uM measured after 1 hr; type: ADME, cell-free; conditions: read-out: Stabilty
A549 [22] = assay: Induction of cell cycle arrest in human A549 cells assessed as accumulation at sub G1 phase at 2.5 uM after 48 hrs by flow cytometric analysis (Rvb =1.9 %); type: functional
A549 [23] = assay: Potentiation of etoposide-induced cell cycle arrest in human A549 cells assessed as accumulation at G1 phase at 2.5 uM in presence of etoposide after 48 hrs by flow cytometric analysis (reference value: 36%); type: functional
A549 [24] = assay: Potentiation of etoposide-induced cell cycle arrest in human A549 cells assessed as accumulation at G1 phase at 5 uM in presence of etoposide after 48 hrs by flow cytometric analysis (reference value: 36%); type: functional
A549 [25] = assay: Potentiation of etoposide-induced cell cycle arrest in human A549 cells assessed as accumulation at G1 phase at 10 uM in presence of etoposide after 48 hrs by flow cytometric analysis (reference value: 36%); type: functional
A549 [26] = assay: Potentiation of cisplatin-induced cell cycle arrest in human A549 cells assessed as accumulation at G1 phase at 5 uM in presence of cisplatin after 48 hrs by flow cytometric analysis (reference value: 14.4%); type: functional
A549 [27] = assay: Potentiation of cisplatin-induced cell cycle arrest in human A549 cells assessed as accumulation at G2/M phase at 5 uM in presence of cisplatin after 48 hrs by flow cytometric analysis (Rvb =52.9%); type: functional
A549 [28] = assay: Potentiation of cisplatin-induced cell cycle arrest in human A549 cells assessed as accumulation at G2/M phase at 10 uM in presence of cisplatin after 48 hrs by flow cytometric analysis (Rvb =52.9%); type: functional
A549 [29] = assay: Induction of cell cycle arrest in human A549 cells assessed as accumulation at G1 phase at 10 uM after 48 hrs by flow cytometric analysis (reference value: 65.5%); type: functional
A549 [30] = assay: Induction of cell cycle arrest in human A549 cells assessed as accumulation at G2/M phase at 10 uM after 48 hrs by flow cytometric analysis (reference value: 22.1%); type: functional
A549 [31] = assay: Induction of cell cycle arrest in human A549 cells assessed as increase in cell accumulation at G1 phase after 48 hrs by flow cytometric analysis; type: functional, cell-based; conditions: dose 2.5-10 µM
A549 [32] = assay: Induction of cell cycle arrest in human A549 cells assessed as decrease in cell accumulation at S phase after 48 hrs by flow cytometric analysis; type: functional, cell-based; conditions: dose 2.5-10 µM
A549 [33] = assay: Induction of apoptosis in human A549 cells assessed as early apoptotic cells at 10 uM incubated for 48 hrs by AnnexinV-FITC/propidium iodide staining based flow cytometry (reference value: 1.2%); type: functional
[34] = Permeability of the compound by PAMPA assay; type: ADME; conditions: read-out: permeability

CYP2C19, sequence (P33261 whole entry): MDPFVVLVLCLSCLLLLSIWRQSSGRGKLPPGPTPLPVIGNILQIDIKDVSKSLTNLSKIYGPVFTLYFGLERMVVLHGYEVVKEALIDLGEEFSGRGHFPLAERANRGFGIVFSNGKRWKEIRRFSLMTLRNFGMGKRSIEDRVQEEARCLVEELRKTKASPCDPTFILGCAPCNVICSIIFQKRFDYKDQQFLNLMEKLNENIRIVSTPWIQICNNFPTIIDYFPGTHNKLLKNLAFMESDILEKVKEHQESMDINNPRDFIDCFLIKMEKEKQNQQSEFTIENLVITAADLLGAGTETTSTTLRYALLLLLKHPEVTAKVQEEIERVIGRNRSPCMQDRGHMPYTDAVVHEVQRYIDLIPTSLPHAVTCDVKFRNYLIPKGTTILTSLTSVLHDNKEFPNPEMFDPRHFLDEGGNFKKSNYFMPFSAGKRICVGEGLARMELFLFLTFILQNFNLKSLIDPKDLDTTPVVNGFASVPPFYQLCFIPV
CYP3A4, sequence (P08684 whole entry): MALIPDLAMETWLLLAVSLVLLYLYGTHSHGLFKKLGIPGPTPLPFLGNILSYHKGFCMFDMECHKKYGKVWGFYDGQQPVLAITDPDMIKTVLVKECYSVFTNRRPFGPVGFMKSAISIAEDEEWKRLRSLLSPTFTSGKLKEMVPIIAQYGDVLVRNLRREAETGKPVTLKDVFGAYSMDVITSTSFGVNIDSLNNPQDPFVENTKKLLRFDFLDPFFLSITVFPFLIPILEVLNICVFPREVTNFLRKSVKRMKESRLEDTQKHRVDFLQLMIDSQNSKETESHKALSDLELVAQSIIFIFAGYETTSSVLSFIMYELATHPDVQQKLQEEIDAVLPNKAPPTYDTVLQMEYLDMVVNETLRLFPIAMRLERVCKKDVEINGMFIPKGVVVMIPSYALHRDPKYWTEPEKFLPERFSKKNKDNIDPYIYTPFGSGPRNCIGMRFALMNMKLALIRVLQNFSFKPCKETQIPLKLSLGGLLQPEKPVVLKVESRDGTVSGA

remaining at 0.5 h, 1 µM [19]: 92.6%
activity at 0.25 h, 10 µM (CYP2C19): 55.8%
activity at 0.25 h, 10 µM (CYP3A4): 36.9%
remaining at 0.5 h, 10 µM [20]: 113%
remaining at 1 h, 10 µM [21]: 85.1%
Papp [34]: < 1.5 ×10⁻⁶ cm/s
SMILES: CN(C)C(=O)NCCCN(C)C1=Nc2ccccc2C(CC(=O)NCc2ccc(F)cc2)N1c1ccc(C2CCCCC2)cc1 (stereo unspecified)
Activity (A549 [1]): 8.3%
fold change (FC) (A549 [2]): 0.46
Activity (A549 [3]): Tde
fold change (FC) (A549 [4]): 0.91
Activity (A549 [5]): Dose-dependent effect
fold change (FC) (A549 [6]): 0.71
fold change (FC) (A549 [7]): 0.46
fold change (FC) (A549 [8]): 0.61
fold change (FC) (A549 [9]): 0.79
fold change (FC) (A549 [10]): 0.45
fold change (FC) (A549 [11]): 0.38
fold change (FC) (A549 [12]): 0.43
fold change (FC) (A549 [13]): 0.86
fold change (FC) (A549 [14]): 0.43
fold change (FC) (A549 [15]): 0.96
Activity (A549 [16]): Dose-dependent effect
fold change (FC) (A549 [17]): 0.53
fold change (FC) [18]: 1.52
Activity (A549 [22]): 1.3%
Activity (A549 [23]): 34.3%
Activity (A549 [24]): 35.6%
Activity (A549 [25]): 7.9%
Activity (A549 [26]): 24.5%
Activity (A549 [27]): 33.9%
Activity (A549 [28]): 9.4%
Activity (A549 [29]): 77.4%
Activity (A549 [30]): 10.9%
Activity (A549 [31]): Dose-dependent effect
Activity (A549 [32]): Dose-dependent effect
Activity (A549 [33]): 8.8%
